Test results as given in patent EP1142883A1, “NOVEL HETEROCYCLIC COMPOUNDS AND DRUG COMPOSITIONS CONTAINING THE SAME” (Asahi Kasei Kabushiki Kaisha, priority 1998, dated 2000).

Columns and labels:
human β3 = target: T1, human β3 (Homo sapiens, UniProt P13945); assay: Human β3-agonist activities: cAMP in CHO cells transfected with human β3 gene; format: cell-based; details: for Emax: CHO, read-out: *Intrinsic Activity (%); for EC50 / *Intrinsic Activity (%): cAMP, 30 minutes, CHO cells expressing human β3; for EC50: read-out: ED50 (the source's name); for *Intrinsic Activity (%): relative value as compared with isoproterenol
T1 construct: the full length human β3 gene was obtained from a human genomic library; expressed in transfected cells; host or cells: CHO (Chinese hamster ovary) cells, pcDNA3 vector, geneticin selection
Method: Human β3-agonist activities were determined using CHO (Chinese hamster ovary) cells transfected with pcDNA3 (mfd. by Invitrogen) to which human β3 gene had been inserted. Human β3 fragment was first obtained from human adipose tissue cDNA (mfd. by Clonetech) by PCR using the primer of β3 (Krief, et al., J. Clin. Invest., 91, pp. 344-349 (1993)). The human β3 fragment obtained was then used as a probe and then the full length human β3 gene was obtained from a human genomic library (mfd. by Clonetech).
The above cells were cultured in a Ham F-12 medium supplemented with 10% fetal bovine serum (mfd. by Dainippon Pharmaceutical), 400 µg/mL geneticin (Gibco BRL), 100 U/mL penicillin and 100 µg/mL streptomycin. After placing these cells (5×10^5) into a 6-well plate and culturing them for 24 hours, they were allowed to stand on a serum-free Ham F-12 medium for 2 hours. The compound was first dissolved in DMSO, repeatedly diluted by ten times with Ham F-12 supplemented with 1 mM isobutylmethylxanthine and 1 mM ascorbic acid to a final concentration of 10^-5 to 10^-12 M, and then added to the cells.
After the cells were cultured for 30 minutes, the medium was removed followed by addition of 0.5 mL of 1 N NaOH. The medium was allowed to stand for 20 minutes and then 0.5 mL of 1 N acetic acid was added to the medium. The medium was stirred and centrifuged followed by quantitating cAMP with cAMP EIA kit (mfd. by Cayman). […]

[1] = Permeability through human small intestine epithelium (Caco-2 cell layer); details: human, Caco-2
Excerpt: (§1) Human colon adenocarcinoma, Caco-2 cell, when cultured, spontaneously differenciates to form a cell layer consisting of a polar single layer having microvillus similar to small intestine epithelial cell. The presence of tight junction has been found out in the membrane formed. Therefore, the above cell layer can be used as a model system of human small intestine epithelium and is recognized as the simplest system to evaluate the permeability through a membrane of a drug orally administered to human. The specific experimental method is as follows.
(§2) Before the cells reached confluence, DMEM was removed and the flask was washed with PBS (phosphate buffered saline, pH 7.2, Ca, Mg free (Gibco BRL)) and treated with trypsin/EDTA to peel off the cells, which were then harvested.
(§3) After centrifugation (1000 rpm, 5 min), the cells were resuspended in DMEM at 4.4×10^5 cells/mL. The cells were seeded into Transwell cell culture chamber (mfd. by Costar) having a collagen-coated membrane filter (3 µm pores, 0.33 cm^2 growth area) at 0.15 mL/well (2×10^5 cells/cm^2, 24 well). After seeding, DMEM was renewed every other day. After culturing for 18 to 25 days, a membrane formed having a membrane resistance of at least 200 Ω · cm^2 was applied to the drug permeation experiment.
(§4) DMEMs in the cup side and base side of Transwell were removed and then replaced with a buffer for the permeation experiment (HBSS (Hanks Balanced Salt Solution, Gibco BRL), 10 mM Mes, pH 6.5 (mfd. by DOJINDO) or 10 mM Hepes, pH 7.4 (mfd. by DOJINDO) containing 25 mM glucose and 0.05% Tween 80). The cup side buffer (0.15 mL) was maintained at pH 6.5 and the base side buffer (0.8 mL) was maintained at pH 7.4. After pre-incubation at 37°C for 10 minutes, the cup side buffer was replaced with the buffer (pH 6.5) containing a drug (20-40 µM). With additionally incubating at 37°C, 80 µL aliquot of the base side buffer was sampled with the passage of time to quantitate the amount of the drug permeated into the base side buffer.
(§5) The amount of the drug contained in the base side buffer sampled with the passage of time was divided by the time to calculate the amount of the drug permeated per unit time (sec). It was then divided by the concentration of the drug added and the surface area of the membrane to calculate the permeability coefficient (Papp). That is, the permeability coefficient (Papp) is obtained by the following calculating formula.
(§6) In this connection, the quantitation of the drug was carried out with LC/MS or HPLC (detecting with fluorescence). The conditions of LC/MS and HPLC are as follows.

Caco-2 cell = assay: as above; details: Caco-2 layer, cup side pH 6.5, base side pH 7.4, drug 20-40 µM, 37°C
Excerpt: as §1, §2, §3, §4, §5, §6

T1 sequence (P13945 whole entry): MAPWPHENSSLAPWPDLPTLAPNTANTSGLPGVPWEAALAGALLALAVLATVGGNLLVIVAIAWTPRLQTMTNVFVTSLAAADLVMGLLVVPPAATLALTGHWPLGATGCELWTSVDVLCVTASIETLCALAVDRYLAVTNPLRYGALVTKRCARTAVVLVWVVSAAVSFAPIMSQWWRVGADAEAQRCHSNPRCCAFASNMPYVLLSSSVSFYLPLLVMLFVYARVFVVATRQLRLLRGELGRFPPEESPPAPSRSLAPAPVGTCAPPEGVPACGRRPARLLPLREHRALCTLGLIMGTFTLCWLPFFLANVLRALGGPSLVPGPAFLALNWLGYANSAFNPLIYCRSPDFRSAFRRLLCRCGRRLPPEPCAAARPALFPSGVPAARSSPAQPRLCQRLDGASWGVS

| SMILES | Emax (human β3) [%] | EC50 (human β3) [nM] | Papp A→B [1] [×10⁻⁶ cm/s] | *Intrinsic Activity (%) (human β3) | Permeability Coefficient Papp × 10^-6 (cm/s) (Caco-2 cell) |
| --- | --- | --- | --- | --- | --- |
| CS(=O)(=O)N1CCOc2ccc([C@@H](O)CNCCOc3ccc4c(c3)[nH]c3ccccc34)cc21 [Example 2, (R)-6-[2-[2-(9H-carbazol-2-yloxy)ethylamino]-1-hydroxyethyl]-4-(methylsulfonyl)-2,3-dihydro-1,4-benzoxazine] | 69 | 12 | 0.93 |  |  |
| CS(=O)(=O)N1COc2ccc([C@@H](O)CNCCOc3ccc4c(c3)[nH]c3ccccc34)cc21 [Example 3, (R)-5-[2-[2-(9H-carbazol-2-yloxy)ethylamino]-1-hydroxyethyl]-3-(methylsulfonyl)-2,3-dihydrobenzoxazole] | 70 | 65 | 1.03 |  |  |
| CS(=O)(=O)N1CCCOc2ccc([C@@H](O)CNCCOc3ccc4c(c3)[nH]c3ccccc34)cc21 [Example 4, (R)-7-[2-[2-(9H-carbazol-2-yloxy)ethylamino]-1-hydroxyethyl]-5-(methylsulfonyl)-2H,3H,4H-benzo[b]1,4-oxazepine] | 107 | 620 | 1.93 |  |  |
| CN(C)S(=O)(=O)n1c(=O)oc2ccc([C@@H](O)CNCCOc3ccc4c(c3)[nH]c3ccccc34)cc21 [Example 7, (R)-3-[(dimethylamino)sulfonyl]-5-[2-[2-(9H-carbazol-2-yloxy)ethylamino]-1-hydroxyethyl]-3-hydrobenzoxazol-2-one] |  | 100 |  | 76 | 0.78 × 10^-6 cm/s |
| CN(C)S(=O)(=O)n1c(=S)oc2ccc([C@@H](O)CNCCOc3ccc4c(c3)[nH]c3ccccc34)cc21 [Example 8, (R)-3-[(dimethylamino)sulfonyl]-5-[2-[2-(9H-carbazol-2-yloxy)ethylamino]-1-hydroxyethyl]-3-hydrobenzoxazol-2-thione] | 99 | 610 |  |  |  |
| O=c1[nH]c2cc([C@@H](O)CNCCOc3ccc4c(c3)[nH]c3ccccc34)ccc2o1 [Example 10, (R)-5-[2-[2-(9H-carbazol-2-yloxy)ethylamino]-1-hydroxyethyl]-3-hydrobenzoxazol-2-one] |  | 170 |  | 99 | 0.54 × 10^-6 cm/s |
| CC(C)NCC(O)c1ccc(O)c(O)c1 (stereo not drawn) [Isoproterenol, reference compound] |  |  |  | 100 |  |
